Reference: the supplement of paper PMC10307832

Columns and labels:
Experiment in all cases: relative viability (nuclei count vs DMSO), 5 days (fraction); higher = more cells survive
[1] = compound: CC1=C(C(=O)N2C=CSC2=N1)CCN3CCC(=C(C4=CC=CC=C4)C5=CC=C(C=C5)F)CC3 + N=C(N)NC(=N)NCCc1ccccc1 [Phenformin] (partner 250 µM)
How it was run: (§1)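 Relative viability divides the nuclei count in treated wells by that in vehicle wells. Lung cancer cell lines were seeded in 1536-well plates, dosed by pin tool the next day, and fixed and stained after 5 days in one step with final 0.05% Triton X-100, 1% formaldehyde and 1 ug/ml Hoechst. Dosing was a single drug or a fixed anchor-drug dose plus five library-drug doses (not always all listed) in √10 steps, and values are medians of duplicate plates imaged at 4×.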

[2] = compound: CC1=C(C(=O)N2C=CSC2=N1)CCN3CCC(=C(C4=CC=CC=C4)C5=CC=C(C=C5)F)CC3 + Nc1nc2[nH]cc(CCc3ccc(C(=O)N[C@@H](CCC(=O)O)C(=O)O)cc3)c2c(=O)[nH]1 [Pemetrexed] (partner 0.2 µM)
How it was run: as §1

[3] = compound: CC1=C(C(=O)N2C=CSC2=N1)CCN3CCC(=C(C4=CC=CC=C4)C5=CC=C(C=C5)F)CC3 + CC(=O)Nc1cccc(-n2c(=O)n(C3CC3)c(=O)c3c(Nc4ccc(I)cc4F)n(C)c(=O)c(C)c32)c1 [Trametinib] (partner 0.02 µM)
How it was run: as §1

[4] = compound: CC1=C(C(=O)N2C=CSC2=N1)CCN3CCC(=C(C4=CC=CC=C4)C5=CC=C(C=C5)F)CC3 + CC1(C)CCC(c2ccc(Cl)cc2)=C(CN2CCN(c3ccc(C(=O)NS(=O)(=O)c4ccc(N[C@H](CCN5CCOCC5)CSc5ccccc5)c(S(=O)(=O)C(F)(F)F)c4)cc3)CC2)C1 [Navitoclax] (partner 0.5 µM)
How it was run: as §1

Cell Line | relative viability ([1]; first compound 0.08 µM) | relative viability ([1]; first compound 0.253 µM) | relative viability ([1]; first compound 0.8 µM) | relative viability ([1]; first compound 2.53 µM) | relative viability ([1]; first compound 8 µM) | relative viability ([2]; first compound 0.08 µM) | relative viability ([2]; first compound 0.253 µM) | relative viability ([2]; first compound 0.8 µM) | relative viability ([2]; first compound 2.53 µM) | relative viability ([2]; first compound 8 µM) | relative viability ([3]; first compound 0.08 µM) | relative viability ([3]; first compound 0.253 µM) | relative viability ([3]; first compound 0.8 µM) | relative viability ([3]; first compound 2.53 µM) | relative viability ([3]; first compound 8 µM) | relative viability ([4]; first compound 0.253 µM) | relative viability ([4]; first compound 0.8 µM) | relative viability ([4]; first compound 2.53 µM) | relative viability ([4]; first compound 8 µM) | relative viability ([4]; first compound 0.08 µM)
HCC-366 | 0.638 | 0.65 | 0.626 | 0.579 | 0.472 | 0.199 | 0.169 | 0.206 | 0.156 | 0.139 | 0.422 | 0.384 | 0.377 | 0.404 | 0.216 | 1.09 | 1.04 | 1.13 | 0.343 | –
LK-2 | 0.417 | 0.386 | 0.301 | 0.297 | 0.321 | 0.243 | 0.286 | 0.285 | 0.281 | 0.181 | 0.629 | 0.723 | 0.886 | 0.801 | 0.477 | 0.962 | 1.11 | 1.05 | 0.703 | 0.741
NCI-H1944 | 0.195 | 0.207 | 0.229 | 0.188 | 0.182 | 0.626 | 0.663 | 0.596 | 0.591 | 0.499 | 0.382 | 0.373 | 0.436 | 0.368 | 0.335 | 0.916 | 1.02 | 1.06 | 1.06 | 1.03
NCI-H647 | 0.573 | 0.644 | 0.54 | 0.438 | 0.348 | 0.185 | 0.149 | 0.185 | 0.166 | 0.184 | 0.388 | 0.609 | 0.541 | 0.612 | 0.249 | 1.13 | 1.11 | 1.2 | 0.476 | 1.12
NCI-H2347 | 0.299 | 0.403 | 0.317 | 0.421 | 0.397 | 0.398 | 0.482 | 0.441 | 0.454 | 0.409 | 0.271 | 0.267 | 0.262 | 0.352 | 0.309 | 0.739 | 0.89 | 0.663 | 0.552 | 0.313
H3255 | 0.341 | 0.34 | 0.352 | 0.37 | 0.38 | 0.554 | 0.532 | 0.552 | 0.565 | 0.552 | 0.611 | 0.577 | 0.66 | 0.613 | 0.417 | 0.393 | 0.557 | 0.542 | 0.419 | 0.416
NCI-H1755 | 0.681 | 0.659 | 0.578 | 0.66 | 0.565 | 0.456 | 0.437 | 0.41 | 0.405 | 0.38 | 0.751 | 0.716 | 0.794 | 0.778 | 0.595 | 1.02 | 1.1 | 1.02 | 0.56 | 0.932
RERF-LC-KJ | 0.345 | 0.427 | 0.414 | 0.534 | 0.289 | 0.502 | 0.476 | 0.439 | 0.486 | 0.481 | 0.833 | 0.893 | 0.837 | 0.794 | 0.578 | 0.769 | 0.806 | 1 | 0.681 | 0.933
HCC-15 | 0.432 | 0.453 | 0.434 | 0.423 | 0.334 | 0.216 | 0.207 | 0.225 | 0.231 | 0.227 | 0.352 | 0.432 | 0.342 | 0.38 | 0.349 | 0.601 | 0.762 | 0.791 | 0.528 | 0.697
NCI-H1650 | 0.494 | 0.345 | 0.383 | 0.58 | 0.314 | 0.335 | 0.348 | 0.352 | 0.461 | 0.337 | 0.513 | 0.532 | 0.483 | 0.722 | 0.412 | 1.2 | 1.16 | 1.44 | 0.865 | 0.992
LU99A | 0.777 | 0.846 | 0.767 | 0.841 | 0.658 | 0.167 | 0.193 | 0.164 | 0.168 | 0.152 | 0.584 | 0.522 | 0.586 | 0.502 | 0.353 | 0.867 | 0.734 | 0.929 | 0.631 | 0.919
SK-MES-1 | 0.608 | 0.693 | 0.699 | 0.73 | 0.522 | 1.11 | 1.05 | 0.97 | 1.02 | 0.829 | 0.578 | 0.523 | 0.545 | 0.594 | 0.474 | 1.21 | 1.41 | 1.47 | 0.86 | 1.36
A-427 | 0.291 | 0.287 | 0.283 | 0.301 | 0.266 | 1.06 | 1.07 | 0.929 | 1.07 | 0.952 | 0.762 | 0.686 | 0.712 | 0.818 | 0.681 | 0.877 | 0.915 | 0.973 | 0.948 | 1.08
HCC-827 | 0.4 | 0.413 | 0.444 | 0.398 | 0.407 | 0.253 | 0.237 | 0.251 | 0.268 | 0.235 | 0.483 | 0.503 | 0.501 | 0.62 | 0.53 | 1.1 | 1.01 | 1.07 | 0.946 | 1.06
NCI-H2087 | 0.333 | 0.434 | 0.529 | 0.585 | 0.323 | 0.634 | 0.686 | 0.595 | 0.682 | 0.599 | 0.177 | 0.211 | 0.256 | 0.255 | 0.705 | 0.712 | 0.995 | 1.23 | 0.794 | 1
NCI-H2228 | 0.261 | 0.301 | 0.376 | 0.348 | 0.256 | 0.406 | 0.37 | 0.375 | 0.362 | 0.278 | 0.481 | 0.417 | 0.612 | 0.506 | 0.332 | 0.914 | 0.811 | 0.838 | 0.623 | 0.693
